The values that follow come from patent US8821861B2, “Fibrin sealant” (The Board of Trustees of the University of Illinois, priority 2007, dated 2014).

Test [1] has as its target T1, fibrin clots formed from purified human fibrinogen and human α thrombin (Homo sapiens, UniProt P02671+P02675+P02679).
T1 construct: purchased Enzyme Research Laboratories (South Bend, Ind.)
T1 sequence (P02671 20-644 isoform P02671-2 limits assumed): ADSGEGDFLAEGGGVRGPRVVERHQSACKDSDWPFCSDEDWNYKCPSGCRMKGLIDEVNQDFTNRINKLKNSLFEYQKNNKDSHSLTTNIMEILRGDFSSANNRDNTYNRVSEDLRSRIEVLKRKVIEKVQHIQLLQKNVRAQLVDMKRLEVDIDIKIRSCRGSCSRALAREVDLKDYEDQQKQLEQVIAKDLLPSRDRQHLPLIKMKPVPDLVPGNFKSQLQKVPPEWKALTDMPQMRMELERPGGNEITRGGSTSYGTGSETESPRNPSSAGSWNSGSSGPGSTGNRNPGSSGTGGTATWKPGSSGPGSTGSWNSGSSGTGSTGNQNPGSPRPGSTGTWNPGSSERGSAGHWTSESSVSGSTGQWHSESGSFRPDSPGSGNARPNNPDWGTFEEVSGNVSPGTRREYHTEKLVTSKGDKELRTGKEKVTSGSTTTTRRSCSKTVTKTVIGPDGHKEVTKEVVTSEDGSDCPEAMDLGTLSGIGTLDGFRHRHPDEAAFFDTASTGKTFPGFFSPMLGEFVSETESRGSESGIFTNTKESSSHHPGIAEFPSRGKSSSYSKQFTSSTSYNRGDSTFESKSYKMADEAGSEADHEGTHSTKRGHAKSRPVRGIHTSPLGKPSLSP
T1 sequence (P02675 31-491): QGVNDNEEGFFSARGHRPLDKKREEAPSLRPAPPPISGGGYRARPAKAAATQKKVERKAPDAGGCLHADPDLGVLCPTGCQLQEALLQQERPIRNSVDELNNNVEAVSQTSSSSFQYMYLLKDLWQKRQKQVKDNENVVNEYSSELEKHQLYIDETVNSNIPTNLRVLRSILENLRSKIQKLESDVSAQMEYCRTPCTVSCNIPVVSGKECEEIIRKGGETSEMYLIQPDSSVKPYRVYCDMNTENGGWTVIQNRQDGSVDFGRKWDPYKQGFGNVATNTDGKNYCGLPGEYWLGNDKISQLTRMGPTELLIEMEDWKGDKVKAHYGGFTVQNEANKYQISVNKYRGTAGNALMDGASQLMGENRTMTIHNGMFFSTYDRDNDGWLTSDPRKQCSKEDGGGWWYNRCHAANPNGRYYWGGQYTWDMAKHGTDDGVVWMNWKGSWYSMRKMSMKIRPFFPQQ
T1 sequence (P02679 27-437 isoform P02679-2 limits assumed): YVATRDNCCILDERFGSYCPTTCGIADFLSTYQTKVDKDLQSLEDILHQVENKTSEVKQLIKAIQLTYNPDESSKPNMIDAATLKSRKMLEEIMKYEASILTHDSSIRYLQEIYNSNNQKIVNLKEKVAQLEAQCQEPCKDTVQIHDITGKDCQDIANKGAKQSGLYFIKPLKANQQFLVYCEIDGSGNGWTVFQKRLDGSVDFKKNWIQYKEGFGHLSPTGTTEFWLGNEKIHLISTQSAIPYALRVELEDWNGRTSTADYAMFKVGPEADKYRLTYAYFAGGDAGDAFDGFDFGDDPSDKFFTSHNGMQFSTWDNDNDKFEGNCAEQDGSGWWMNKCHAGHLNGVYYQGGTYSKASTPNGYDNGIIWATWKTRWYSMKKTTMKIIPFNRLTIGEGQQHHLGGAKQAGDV
The test is described as follows: Fibrin clot turbidity (A405), purified fibrinogen clotted with thrombin in microplates. The format is biochemical. To be noted: for polyP concentration exerting maximal effect on turbidity: 2.6 mg/mL citrate-free fibrinogen, 1 nM thrombin (FIG. 8). As to the method:
The in vitro studies reported here utilize a microplate-based method to evaluate the formation of fibrin clots, which are prepared by mixing together purified fibrinogen and thrombin. Once fibrinogen is cleaved to fibrin, the fibrin monomers spontaneously polymerize to yield a three-dimensional gel, or clot. These fibrin polymers scatter visible light, resulting in increased turbidity which can monitored spectrophotometrically to detect clotting.
Fibrin clots were formed in 96-well polystyrene microplates (Corning Inc., Corning, N.Y.) by first preincubating fibrinogen with polyP in TBS plus the indicated CaCl2 concentrations. (Preincubations of fibrinogen with calcium ions were for 15 minutes unless otherwise stated.) Thrombin in TBS plus the same concentration of CaCl2 was then added to trigger clot formation. Reactant concentrations were typically 2.6 mg/mL fibrinogen, 62.5 pM to 8 nM thrombin, 0 to 8 mM polyP, and 0 to 5 mM CaCl2 in a total volume of 200 μL. In some studies, 0 to 10 U/mL unfractionated heparin or 1 mM iodoacetamide were also included. Clotting was evaluated by monitoring the change in turbidity (A405) for varying times (typically, 1 hour) at room temperature using a Spectramax microplate reader (Molecular Devices Corporation, Sunnyvale, Calif.). […] Final turbidities (A405) of fibrin clots were typically quantified after the clots had matured for 60 minutes.

Test [2] has as its target T1, fibrin clots formed from purified human fibrinogen and human α thrombin. Described as above. The format is biochemical. To be noted: up to 20 U/mL unfractionated heparin, 500 μM polyP.
Another test concerns human plasma. To be noted: previous studies [20]; cited from earlier work.
The test system of the next test is spleen surface wounds. The test is described as follows: Porcine splenic trauma model of surgical bleeding. The format is in vivo, pig. As to the method:
In preliminary experiments, the ability of polyP to enhance the performance of a fibrin sealant composed of purified fibrinogen and thrombin was evaluated. The fibrinogen component of the experimental fibrin sealant was pre-mixed with calcium ions and polyP, while control fibrinogen preparations were pre-mixed with calcium ions without polyP. Shallow surface wounds were then made on the surface of the spleen of anesthetized pigs, after which 0.3 mL each of the fibrinogen and thrombin solutions were applied to the wound surface and allowed to react with each other. Including polyP in the fibrinogen solution shortened the time to cessation of bleeding in this model: 9.8±1.0 minutes with polyP, but 12.3±1.0 minutes without polyP (mean±SEM). Adding polyP to the fibrinogen solution also changed the appearance of fibrin clots formed on the wound surfaces.
Young adult pigs weighing 20-35 kg were anesthetized using intramuscular teletamine/zolazepam/glycopyrolate, followed by intubation and maintenance with inhaled isoflurane. A ventral midline laparotomy was performed and the spleen was externalized. Shallow (approximately 1 mm deep) oval surface wounds measuring approximately 3×5 mm were made using a Metzenbaum scissors. […] Time to cessation of bleeding was assessed visually. […]

For test [3], the target named is T2, fibrin fibrils (Homo sapiens, UniProt P02671+P02675+P02679).
T2 construct: purchased Enzyme Research Laboratories (South Bend, Ind.)
T2 sequence (P02671 20-644 isoform P02671-2 limits assumed): T1 sequence (P02671 20-644 isoform P02671-2 limits assumed)
T2 sequence (P02675 31-491): T1 sequence (P02675 31-491)
T2 sequence (P02679 27-437 isoform P02679-2 limits assumed): T1 sequence (P02679 27-437 isoform P02679-2 limits assumed)
The test is described as follows: Fibril size determination (relative mass-length ratio from wavelength scan). To be noted: 1 mM polyP; 2.6 mg/mL fibrinogen, 3 nM thrombin, 2.5 mM calcium ions. It counts as biochemical. The source says: Previous studies of fibrin clot structure have shown that the final optical density of fibrin clots is primarily a function of the thickness of the fibrils formed. It is possible to estimate the mass-length ratios of fibrin fibrils by measuring the optical density of clots at a series of wavelengths of light, using a suitable mathematical analysis of the data. Such analyses of fibrin clots were made by mixing fibrinogen and thrombin in the presence of calcium ions and varying concentrations of polyP, in order to determine the effect of polyP on the mass-length ratio of the fibrils (FIG. 5(A)). […] When fibrin clots formed in the presence of calcium ions and varying polyP concentrations were visualized using scanning electron microscopy, the fibrin fibrils had increased thickness as the polyP concentration increased (FIGS. 5(C-E)).
Relative fibril mass to length ratios were determined using a modification of the method of Carr and Gabriel for clots with high turbidity. Briefly, fibrin clots were allowed to mature for 2 hours after thrombin addition, after which the absorbance was scanned from 400 to 800 nm on a Spectramax microplate reader. A plot of 1/τ*λ^3(y axis) versus 1/λ^2 (x axis) was used to determine the y intercept, the inverse of which is proportional to the mass-length ratio of the fibers. […]

The target of test [4] is T2, fibrin fibrils. Briefly: Scanning electron microscopy of fibrin clots (fibril thickness). The format is biochemical. To be noted: 2.6 mg/mL fibrinogen, 2.5 mM CaCl2, 3 nM thrombin, without polyP 26.5±0.7 nm. The method, then:
Fibrin clots formed as described above for turbidity measurements were allowed to mature for 2 hours after thrombin addition. Clots were washed 4 times in 0.1 M cacodylate, fixed in Karnovsky's gluteraldehyde solution overnight, and then processed by stepwise ethanol gradient, critical point drying, and sputter coating with gold palladium. Clots were observed and photographed in six different representative areas using a scanning electron microscope.

The target in test [5] is T3, fibrin clots / human plasmin (Homo sapiens, UniProt P02671+P02675+P02679).
T3 construct: purchased Enzyme Research Laboratories (South Bend, Ind.)
T3 sequence (P02671 20-644 isoform P02671-2 limits assumed): T1 sequence (P02671 20-644 isoform P02671-2 limits assumed)
T3 sequence (P02675 31-491): T1 sequence (P02675 31-491)
T3 sequence (P02679 27-437 isoform P02679-2 limits assumed): T1 sequence (P02679 27-437 isoform P02679-2 limits assumed)
The test is described as follows: Fibrinolysis of fibrin clots by plasmin. It counts as biochemical. To be noted: 1 mM polyP, 1 mg/mL fibrinogen, 2.5 mM CaCl2, 8 nM plasmin, 1 nM thrombin; clots without polyP lysed quickly. The method, then:
FIG. 6 is a graph of the time course of fibrinolysis of fibrin clots. Fibrinogen (1 mg/mL) was preincubated for 15 minutes in the presence of 2.5 mM CaCl2 with 1 mM polyP (▾) or without polyP (O), after which 8 nM plasmin was added followed immediately by 1 nM thrombin. Fibrin clots were allowed to form for 30 minutes, after which their turbidities were measured. The data are plotted as A405 values normalized to the initial A405 value for each curve.
In these experiments, clots were formed by mixing purified human fibrinogen, human plasmin, and human thrombin in the presence of calcium ions, with or without polyP. Clot lysis was quantified by measuring the decrease in optical density over time (following a 30 minute initial clot formation). […] (FIG. 6)

Test [6] addresses T4, fibrin cross-linking by factor XIIIa (Homo sapiens, UniProt P02671+P02675+P02679).
T4 construct: changing the rate or extent of fibrin cross-linking by factor XIIIa; purchased Enzyme Research Laboratories (South Bend, Ind.)
T4 sequence (P02671 20-644 isoform P02671-2 limits assumed): T1 sequence (P02671 20-644 isoform P02671-2 limits assumed)
T4 sequence (P02675 31-491): T1 sequence (P02675 31-491)
T4 sequence (P02679 27-437 isoform P02679-2 limits assumed): T1 sequence (P02679 27-437 isoform P02679-2 limits assumed)
The test is described as follows: Fibrin cross-link formation (SDS-PAGE). The format is biochemical. To be noted: 37° C., data not shown. The method, then:
Rates of a and y cross-link formation were studied in clotting reactions carried out as described for turbidity measurements using purified fibrinogen, except that fibrin clots were formed in polypropylene tubes at 37° C. and reactions were stopped at various times by adding an equal volume of 2×SDS sample buffer (100 mM Tris-HCl, 1 mM dithiothreitol, 4% sodium dodecyl sulfate (SDS), 0.02% bromophenol blue, 20% glycerol, pH 6.8) with immediate boiling at 95° C. for 5 minutes. Samples (10 μL) were then subjected to SDS-PAGE using 7.5% polyacrylamide gels and stained with Gelcode (Pierce, Rockford, Ill.) according to the manufacturer's directions.

“Also recorded” adds a separate entry of the source.

For `NC(=O)CI` [iodoacetamide, reference compound], in test [1] (transglutaminase inhibitor added to clotting mixtures, data not shown), the “effect of iodoacetamide on the enhancement of final clot turbidity by polyP” value is on record as “failed to antagonize the enhancement of final clot turbidity by polyP”.
As for heparin [reference compound], in test [2], the “effect of added heparin on the polyP effect on turbidity” value is “did not reduce the effect of polyP on turbidity”. In test [1] (heparin 0 to 10 units/mL, data not shown), the “magnitude of the turbidity increase relative to polyP” value is reported as “markedly lower than that observed with polyP”. Further, the “effect on fibrin turbidity” value in test [1] (heparin examined from 0 to 10 units/mL, data not shown) was “increased fibrin turbidity in a dose-dependent fashion”.
Consider Polyphosphate, for which the “polyP concentration exerting maximal effect on turbidity” value in test [1] (2 mM Ca2+) was 1 mM; in test [1] (2.5 mM Ca2+), 1 to 2 mM; in test [1] (3 mM Ca2+), 2 to 4 mM; in test [1] (5 mM Ca2+), 3 to 8 mM. Also, the “polyP concentration giving optimal enhancement of final clot turbidity” value in test [1] (expressed as phosphate monomer, 2.6 mg/mL fibrinogen, 8 nM thrombin, 2.5 mM calcium chloride (FIG. 3)) is given as “approximately 1 mM”. Also, the “effect on turbidity of fibrin clots” value in test [1] (in the absence of Ca2+) is “did not increase the turbidity of fibrin clots”. In test [1] (mM Ca2+ present, regardless of the amount of thrombin added), the “effect on final clot turbidity” value is given as “markedly increased final clot turbidity”. Further, the “effect on fibrin clot turbidity with added factor XIIIa” value in test [1] (preactivated factor XIIIa added to the clotting mixtures, data not shown) is “still increased fibrin clot turbidity”. In test [1] (purified fibrinogen plus thrombin), the “effect on thrombin clotting time” value was “lack of effect”. Besides, the “enhancement of final clot turbidity with factor XIIIa inhibitor” value in test [1] (with or without 1 mM iodoacetamide, data not shown) was “approximately equally well in the presence or absence of iodoacetamide”. For the same compound, the “effect on clotting time of human plasma” value in the test with human plasma is given as “shortens the clotting time of human plasma”. Also, the “effect on clotting time when thrombin was added to plasma” value in the test on human plasma was “did not shorten clotting times”. The “time to cessation of bleeding (mean±SEM)” value with spleen surface wounds (fibrin sealant, polyP in the fibrinogen solution, 0.3 mL each of fibrinogen and thrombin solutions on spleen wound, without polyP 12.3±1.0 minutes) was 9.8 ± 1.0 min. The “appearance of fibrin seals formed on the wound surfaces” value with spleen surface wounds (fibrinogen with polyP versus without polyP (FIG. 7)) is “more opaque”. Further, the “mass-length ratio of fibrin fibrils compared to clots formed in the absence of polyP” value on fibrin fibrils [3] is on record as “more than three times larger”. In addition, the “mean fibril thickness (±standard error)” value stood at 33.6±1.0 nm at fibrin fibrils [4] (100 μM polyP), 54.2±1.3 nm at fibrin fibrils [4] (500 μM polyP) and 73.4±1.5 nm on fibrin fibrils [4] (1 mM polyP). Further, in test [5], the “resistance of clots to fibrinolysis” value was “highly resistant to lysis by plasmin”. Moreover, the “rate of formation of cross-linked fibrin chains” value in test [6] is “appeared to be the same with or without polyP; also recorded: failed to identify any impact of polyP”.
